From ChEMBL document CHEMBL1201862, “PubChem BioAssay data set” (2004) come the findings set out here.

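48-hour exposure; five concentrations; linearly interpolated endpoints. GI50 = concentration required for 50% inhibition of growth.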 Calls of active or inactive are those of the source. Cut-off read from the data, not from the text of the source: active = GI50 up to about 1.1 µM and inactive = higher.

Holding throughout (experiment): DTP human tumour cell line panel, 48 h
For experiment [1], the system named is RXF 393.
The subject of experiment [2] is OVCAR-4.
Experiment [3] deals with RPMI-8226.
In experiment [4] the test system is HOP-62.
Experiment [5] relates to A498.
In experiment [6] the test system is COLO 205.
Experiment [7] concerns MCF7.
Experiment [8] concerns CAKI-1.
The subject of experiment [9] is SNB-75.
The test system of experiment [10] is SW-620.
Experiment [11] deals with NCI-H23.
The test system of experiment [12] is SK-MEL-5.
In experiment [13] the test system is IGROV-1.
Experiment [14] relates to CCRF-CEM.
Experiment [15] relates to M14.
Experiment [16] concerns HCT-116.
Experiment [17] relates to OVCAR-8.
Experiment [18] concerns MOLT-4.
Experiment [19] deals with HL-60.
Experiment [20] deals with LOX IMVI.

As for `Cc1ccc(NC(=S)NNC(=O)c2cc(-c3ccccc3)nc3ccccc23)cc1C`, the GI50 in experiment [1] is 27 µM (inactive); in experiment [2], 18.1 µM (inactive); in [3], 24.3 µM (inactive); in [4], 22 µM (inactive); in experiment [5] it was 16.6 µM (inactive); in experiment [6], 16.6 µM (inactive). The GI50 was 12.4 µM (inactive) in experiment [7]; 59.7 µM (inactive) in [8]; 16.3 µM (inactive) in [9]; 31.5 µM (inactive) in [10]; 19.3 µM (inactive) in experiment [11]; 18 µM (inactive) in experiment [12]. Also, the GI50 in experiment [13] was 20 µM (inactive); in [14], 27.5 µM (inactive); in experiment [15], 15.5 µM (inactive); in experiment [16], 18.6 µM (inactive); in experiment [17], 20.8 µM (inactive); in [18], 20.8 µM (inactive).
Take `CC(=O)N/C(=C\c1ccc(Cc2nc3c([nH]2)C(=O)c2ccccc2C3=O)cc1)c1nc2c([nH]1)C(=O)c1ccccc1C2=O`: the GI50 in [19], in [1], in experiment [2], in experiment [3], in experiment [4] and in experiment [20] was > 100 µM (inactive) throughout. In addition, the GI50 is > 100 µM (inactive) in experiment [5]; > 100 µM (inactive) in experiment [6]; > 100 µM (inactive) in experiment [8]; 86.3 µM (inactive) in [9]; > 100 µM (inactive) in experiment [10]; > 100 µM (inactive) in experiment [11]. Also, the GI50 in experiment [12] is > 100 µM (inactive); in experiment [13], > 100 µM (inactive); in experiment [14] it was > 100 µM (inactive); in experiment [15], > 100 µM (inactive); in [16] it was > 100 µM (inactive); in experiment [17], 43.5 µM (inactive). For the same compound, the GI50 in experiment [18] is > 100 µM (inactive).
Consider `CO[C@H]1C=C[C@@]23c4cc5c(cc4CO[C@]2(O)CN(C)[C@H]3C1)OCO5`, for which the GI50 in experiment [19], in experiment [2], in experiment [3], in experiment [20], in [5] and in [6] was > 100 µM (inactive) in each case. For the same compound, the GI50 in experiment [7], in [8], in [9], in experiment [10], in [11] and in experiment [12] was > 100 µM (inactive) each time. Moreover, the GI50 in experiment [13], in experiment [14], in [15], in experiment [16], in experiment [17] and in experiment [18] was > 100 µM (inactive) in each case.
For the compound `CCCCC1(N=[N+]=[N-])C(=O)c2cccc3c2N(CCC3)C1=O` (stereo unspecified), the GI50 in [1], in experiment [2], in experiment [3], in [4], in [20] and in experiment [5] was > 100 µM (inactive) each time. For the same compound, the GI50 in experiment [6], in [7], in experiment [8], in [9], in [10] and in experiment [11] was > 100 µM (inactive) throughout. The GI50 in experiment [12] is > 100 µM (inactive); in experiment [13], > 100 µM (inactive); in experiment [14] it was 91.6 µM (inactive); in [15], > 100 µM (inactive); in experiment [16], > 100 µM (inactive); in [17] it was > 100 µM (inactive). In addition, in experiment [18], the GI50 is > 100 µM (inactive).
On to `O=C(O)c1cc(-c2ccc3cc4c(cc3c2)OCO4)nc2ccccc12`, for which the GI50 in experiment [19] is 16.5 µM (inactive); in [1], 54 µM (inactive); in experiment [2] it was > 100 µM (inactive); in experiment [3], 45.9 µM (inactive); in [4], 41.1 µM (inactive); in [20] it was 29.3 µM (inactive). Further, the GI50 in experiment [5] is 23.9 µM (inactive); in [6] it was 42.4 µM (inactive); in experiment [7], 32.2 µM (inactive); in [9], 49.7 µM (inactive); in experiment [10], 45.2 µM (inactive); in [11] it was 43.8 µM (inactive). The GI50 was 24 µM (inactive) in experiment [12]; 29 µM (inactive) in [13]; 11.3 µM (inactive) in [14]; 28 µM (inactive) in experiment [15]; 19.5 µM (inactive) in experiment [16]; 37.1 µM (inactive) in experiment [17]. In addition, in experiment [18], the GI50 is 28.8 µM (inactive).
Consider `CC(SC(=S)N1CCOCC1)C(=O)Nc1nnc(-c2ccc(Cl)cc2)o1` (stereo unspecified), for which the GI50 was > 100 µM (inactive) in experiment [1]; 26.7 µM (inactive) in experiment [2]; 23.2 µM (inactive) in experiment [3]; 52 µM (inactive) in [4]; 28.8 µM (inactive) in experiment [20]; 60.5 µM (inactive) in experiment [5]. For the same compound, the GI50 in experiment [6] is 38.4 µM (inactive); in [7], 32.3 µM (inactive); in experiment [9] it was > 100 µM (inactive); in experiment [10], 42.6 µM (inactive); in [11] it was 50.2 µM (inactive); in experiment [12] it was 31.6 µM (inactive). The GI50 is 33.8 µM (inactive) in [13]; < 0.01 µM (active) in [14]; 36 µM (inactive) in experiment [15]; 23.8 µM (inactive) in experiment [16]; 42.2 µM (inactive) in experiment [17]; 16.1 µM (inactive) in [18].
Take `NC1CCCCC1`: the GI50 in [19] is 135 µM (inactive); in experiment [1] it was 347 µM (inactive); in experiment [2] it was 265 µM (inactive); in [3], 369 µM (inactive); in experiment [4] it was 223 µM (inactive); in experiment [20], 506 µM (inactive). The GI50 in experiment [5] is > 562 µM (inactive); in experiment [6], > 56.2 µM (inactive); in experiment [7], 199 µM (inactive); in experiment [9] it was 264 µM (inactive); in [10] it was 419 µM (inactive); in experiment [11], > 562 µM (inactive). In addition, the GI50 is 283 µM (inactive) in experiment [12]; 317 µM (inactive) in experiment [13]; 260 µM (inactive) in experiment [14]; 193 µM (inactive) in experiment [16]; 397 µM (inactive) in experiment [17]; 195 µM (inactive) in experiment [18].
As to `COc1ccc(C(CC(=O)c2ccc(O)cc2)C(C(=O)c2ccc(O)cc2)C(c2ccc(OC)cc2)C2C(=O)NC(=S)NC2=O)cc1` (stereo unspecified), the GI50 in experiment [19] is 32.1 µM (inactive); in experiment [2] it was 18.8 µM (inactive); in [3], 22.6 µM (inactive); in experiment [4] it was 26.1 µM (inactive); in [20], 17.9 µM (inactive); in experiment [5], 38.9 µM (inactive). The GI50 in experiment [6] was 16 µM (inactive); in experiment [7] it was 14.5 µM (inactive); in experiment [9] it was 25.8 µM (inactive); in experiment [10], 23.1 µM (inactive); in experiment [12] it was 21.5 µM (inactive); in [13] it was 15.5 µM (inactive). In addition, the GI50 in experiment [14] was 11.1 µM (inactive); in experiment [15], 20.8 µM (inactive); in experiment [16] it was 16.8 µM (inactive); in experiment [17] it was 24.8 µM (inactive); in [18], 37.7 µM (inactive).
